Reference: paper PMC6264278, “Corydaline Inhibits Multiple Cytochrome P450 and UDP-Glucuronosyltransferase Enzyme Activities in Human Liver Microsomes” (Molecules, 2011)

Experiments:
[1] = target: T1, UGT2B7 (Homo sapiens, UniProt P16662); assay: UGT2B7 azidothymidine glucuronidation inhibition in pooled human liver microsomes; format: in vitro ADME; conditions: pooled human liver microsomes (H161), 100 μM azidothymidine, no inhibition at 1,000 μM of corydaline
T1 construct: using pooled human liver microsomes; tissue BD Gentest Co. H161; host or cells: pooled human liver microsomes
T1 sequence (P16662 24-529): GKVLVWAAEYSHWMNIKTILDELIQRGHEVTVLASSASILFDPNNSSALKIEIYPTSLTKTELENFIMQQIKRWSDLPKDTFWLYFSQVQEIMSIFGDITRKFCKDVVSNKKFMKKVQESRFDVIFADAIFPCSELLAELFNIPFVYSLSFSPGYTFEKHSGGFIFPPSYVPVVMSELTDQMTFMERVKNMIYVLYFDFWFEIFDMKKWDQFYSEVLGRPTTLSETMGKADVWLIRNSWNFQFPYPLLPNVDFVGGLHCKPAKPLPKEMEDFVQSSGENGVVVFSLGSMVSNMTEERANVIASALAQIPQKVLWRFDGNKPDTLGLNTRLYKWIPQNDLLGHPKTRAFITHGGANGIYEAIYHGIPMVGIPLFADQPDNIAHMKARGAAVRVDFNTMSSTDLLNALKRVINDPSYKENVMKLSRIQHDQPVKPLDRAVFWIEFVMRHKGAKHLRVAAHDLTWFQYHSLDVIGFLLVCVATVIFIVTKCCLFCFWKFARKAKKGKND
Protocol: (§1) The inhibitory potencies (IC50 values) of corydaline were also determined with UGT assays in the presence and absence of corydaline (final concentrations of 1–1,000 μM with acetonitrile concentration less than 0.5% v/v) using pooled human liver microsomes. 17β-Estradiol 3-glucuronidation, trifluoperazine glucuronidation, propofol glucuronidation, and azidothymidine glucuronidation activities were determined as probe activities for UGT1A1, UGT1A4, UGT1A9, and UGT2B7, respectively, using LC/MS/MS. Incubation mixtures were prepared in a total volume of 100 μL, as follows: Pooled human liver microsomes (0.2 mg/mL for 17β-estradiol, trifluoperazine and azidothymidine; 0.1 mg/mL for propofol), 2 mM UDPGA, 25 μg/mL alamethicin, 10 mM MgCl2, 50 mM tris buffer (pH 7.4), UGT-isoform specific probe substrate (20 μM 17β-estradiol for UGT1A1, 5 μM trifluoperazine for UGT1A4, 10 μM propofol for UGT1A9, or 100 μM azidothymidine for UGT2B7), and various concentrations of corydaline (1−1000 μM). […]
Glucuronides produced from UGT isoform-specific substrates were respectively determined by LC/MS/MS. […] Quantification was performed by SRM of the [M+H]^+ ion for trifluoperazine glucuronide and azidothymidine glucuronide or [M−H]^− for 17β-estradiol 3-glucuronide and propofol glucuronide and the related product ion for each metabolite. […]

[2] = target: T2, UGT1A1 (Homo sapiens, UniProt P22309); assay: UGT1A1 17β-estradiol 3-glucuronidation inhibition in pooled human liver microsomes; format: in vitro ADME
T2 construct: using pooled human liver microsomes; tissue BD Gentest Co. H161; host or cells: pooled human liver microsomes
T2 sequence (P22309 26-533): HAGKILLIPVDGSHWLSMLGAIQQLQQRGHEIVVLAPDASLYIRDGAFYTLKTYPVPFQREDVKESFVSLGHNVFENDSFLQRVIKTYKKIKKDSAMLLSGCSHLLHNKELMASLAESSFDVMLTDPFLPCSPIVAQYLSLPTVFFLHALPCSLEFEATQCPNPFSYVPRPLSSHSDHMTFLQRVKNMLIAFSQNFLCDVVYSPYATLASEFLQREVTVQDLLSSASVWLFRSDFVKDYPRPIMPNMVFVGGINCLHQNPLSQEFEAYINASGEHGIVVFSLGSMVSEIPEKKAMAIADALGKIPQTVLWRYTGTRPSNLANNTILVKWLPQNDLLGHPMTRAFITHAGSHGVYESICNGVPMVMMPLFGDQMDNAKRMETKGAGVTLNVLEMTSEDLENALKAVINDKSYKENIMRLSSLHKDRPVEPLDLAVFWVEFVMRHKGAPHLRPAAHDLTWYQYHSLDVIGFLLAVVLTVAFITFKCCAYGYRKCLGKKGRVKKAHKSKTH
Protocol: as §1, with “μM). Reactions were initiated by addition of UDPGA, and incubations were carried out at 37 °C in a shaking water bath for 30 min.” for “μM).”
Glucuronides produced from UGT isoform-specific substrates were respectively determined by LC/MS/MS. […] Quantification was performed by SRM of the [M+H]^+ ion for trifluoperazine glucuronide and azidothymidine glucuronide or [M−H]^− for 17β-estradiol 3-glucuronide and propofol glucuronide and the related product ion for each metabolite.
Reactions were initiated by addition of NADPH at 37 °C and stopped after 15 min by placement of the incubation tubes on ice and addition of ice-cold methanol (100 μL) containing an internal standard (2.0 μg/mL ^13C6-4-hydroxydiclofenac for diclofenac, 0.5 μg/mL d3-4-hydroxymephenytoin for mephenytoin, or 0.5 μg/mL d9-1-hydroxy-bufuralol for bufuralol). The incubation mixtures were centrifuged at 13,000 × g for 5 min, and aliquots (5 μL) of the supernatants were analyzed by LC/MS/MS. […] Aliquots (5 μL) were analyzed by LC/MS/MS. […]

IC50, UGT2B7 azidothymidine glucuronidation [1]: not inhibited
IC50, UGT2B7 azidothymidine glucuronidation ([1]; listed as corydaline): No inhibition *
Ki ([2]; human liver microsomes, 10-80 μM 17β-estradiol, mixed competitive-noncompetitive equation): 57.6 ± 13 µM
α (mix of competitive and noncompetitive mechanisms), UGT1A1 17β-estradiol 3-glucuronidation ([2]; mixed competitive-noncompetitive equation, nonlinear regression): 0.555
IC50 ([2]; pooled human liver microsomes (H161), 20 μM 17β-estradiol, mean ± SD, n = 3): 137 ± 16.2 µM
Structure (SMILES): COc1cc2c(cc1OC)C1C(C)c3ccc(OC)c(OC)c3CN1CC2 (centres unmarked) [Corydaline, 2,3,9,10-tetramethoxy-13-methyl-5,8,13,13a-tetrahydro-6H-isoquino[3,2-a]isoquinoline]
